For 21 molecules, EC50, inhibition and IC50 results are on record in patent publication US20070072897A1, “Phenylaminopropanol derivatives and methods of their use” (Wyeth, priority 2005, published 2007).

One experiment concerns the target T1, human hNET (Homo sapiens, UniProt P23975).
T1 construct: expressed in transfected cells; host or cells: MDCK (MDCK-Net6)
The experiment is described as follows: Norepinephrine (NE) uptake assay in MDCK-Net6 cells. In kind it is cell-based. The following applies: [3H]NE uptake; for EC50: MDCK-Net6 cells stably transfected with hNET; for inhibition at 1 µM: MDCK-Net6 cells, read-out: hNET Percentage inhibition at 1 μM.

The next experiment has as its target T2, human 5-HT2A receptor (Homo sapiens, UniProt P28223).
T2 construct: expressed in transfected cells; host or cells: CHO
The experiment is described as follows: 5-HT2A FLIPR assay (calcium response to DOI) in CHO cells. The class given is cell-based. The note with it: for inhibition at 1 µM: CHO, read-out: 5-HT2A Percentage inhibition at 1 μM; for IC50: antagonist inhibition of 3 nM DOI stimulation, CHO cells, FLIPR. The protocol:
Cells are washed with PBS without Ca^2+ and 3 mL Trypsin is added to dissociate cells. After 3 minute incubation, 7 mL Trypsin Neutralizing Solution is added. Cells are then aspirated from flask and mixed in a 50 mL conical tube. 10 μL sample is used to count cells on a hemacytometer. […] Two 96-well drug plates are prepared for each cell plate. Plate 1 will contain compounds to be tested and plate 2 will contain the agonist DOI (3 nM) to activate a calcium response. Specific details of compound preparation are listed below. […] Outside wells are not used due to an edge effect seen in these cells. The reference compounds DOI and 5-HT are used as standard 5HT agonists. […] Standards for plate one are Vehicle, 1 μM DOI, and 3 nM MDL. […] On the day of the assay, test compound solutions of appropriate concentrations are diluted in assay buffer as described for single concentration testing. This procedure is followed to ensure that the solvent concentration is consistent across dilutions. The typical concentration testing range of compounds is 10^−10—10^−5 M in half log or full log increments. A 10 μM DOI stock is diluted to 60 nM and added to the respective wells. The pipeting station of the FLIPR will make an additional 20-fold dilution for a final concentration of 3 nM. Standards for this plate include Vehicle and 3 nM DOI. Contents of dye vial (Molecular Devices #R8090) are dissolved in 100 mL of 1×HBSS supplemented with 20 mM HEPES. Aliquots can be frozen at −20° C. for up to one week for future use. On the day of assay, dye is thawed and diluted to half concentration. […] Cells are allowed to adhere for 24 hours in 96-well plates. […] Cell, compound and DOI plates are loaded into the FLIPR machine. The baseline fluorescence level is read once every second for 1 minute. Compound (10 μL) is transferred from the compound plate to the cells and the fluorescence level recorded every 6 seconds for 2 minutes to determine any agonist activity. Baseline fluorescence is recorded again every second for 10 seconds. For antagonist determination, 10 μL of 3 nM DOI is transferred from the DOI plate to the cells and the fluorescence level recorded every 6 seconds for 5 minutes. The pipetting unit of the FLIPR machine completes all transfers. […] The data are log transformed prior to analysis.

Structures can show the parent of a compound that is named as a salt.

T1 sequence (P23975 whole entry): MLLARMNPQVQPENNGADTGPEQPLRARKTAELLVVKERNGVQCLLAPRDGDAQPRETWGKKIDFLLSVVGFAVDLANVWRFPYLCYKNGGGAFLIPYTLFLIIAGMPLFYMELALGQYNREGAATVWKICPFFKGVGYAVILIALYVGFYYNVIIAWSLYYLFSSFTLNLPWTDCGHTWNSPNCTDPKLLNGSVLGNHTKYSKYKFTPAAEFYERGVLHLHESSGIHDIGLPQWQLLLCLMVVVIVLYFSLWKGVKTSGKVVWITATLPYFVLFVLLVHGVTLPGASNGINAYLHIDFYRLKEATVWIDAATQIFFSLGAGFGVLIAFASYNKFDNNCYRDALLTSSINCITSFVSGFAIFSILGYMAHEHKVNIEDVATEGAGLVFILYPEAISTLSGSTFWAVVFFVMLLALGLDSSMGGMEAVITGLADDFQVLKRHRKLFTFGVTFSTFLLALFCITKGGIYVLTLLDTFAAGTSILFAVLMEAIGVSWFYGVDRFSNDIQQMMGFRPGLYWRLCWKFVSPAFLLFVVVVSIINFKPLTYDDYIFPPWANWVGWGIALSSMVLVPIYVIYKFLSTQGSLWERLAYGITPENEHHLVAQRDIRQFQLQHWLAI
T2 sequence (P28223 whole entry): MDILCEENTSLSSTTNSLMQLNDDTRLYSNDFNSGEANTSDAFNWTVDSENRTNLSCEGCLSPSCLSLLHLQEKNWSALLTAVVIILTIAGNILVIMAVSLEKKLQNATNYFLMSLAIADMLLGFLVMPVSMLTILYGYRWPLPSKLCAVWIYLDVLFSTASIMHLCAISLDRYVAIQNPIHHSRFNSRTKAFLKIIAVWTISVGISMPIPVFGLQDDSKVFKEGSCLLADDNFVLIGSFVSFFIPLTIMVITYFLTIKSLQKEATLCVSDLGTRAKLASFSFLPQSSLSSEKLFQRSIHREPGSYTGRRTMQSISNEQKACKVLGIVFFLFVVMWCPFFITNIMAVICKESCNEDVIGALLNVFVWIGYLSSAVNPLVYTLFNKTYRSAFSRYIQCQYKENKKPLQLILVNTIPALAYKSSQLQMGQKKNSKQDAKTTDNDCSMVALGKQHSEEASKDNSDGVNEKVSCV

Regarding `CNC[C@@H](O)[C@H](c1ccccc1)N1CC2(CCCCC2)c2ccccc21` [Example 33, (1S,2R)-3-(methylamino)-1-phenyl-1-spiro[cyclohexane-1,3′-indol]-1′(2′H)-ylpropan-2-ol hydrochloride], at human hNET, the concentration giving a half-maximal response (EC50) came out at 0.029 µM. For the same molecule, the inhibition at 1 µM at human 5-HT2A receptor turned out to be 13%.
With `CNC[C@@H](O)[C@H](c1ccccc1)n1ccc2cc(OCCc3ccccc3)ccc21` [Example 18, (1S,2R)-3-(methylamino)-1-phenyl-1-[5-(2-phenylethoxy)-1H-indol-1-yl]propan-2-ol hydrochloride], the EC50 on human hNET turned out to be 0.219 µM. On human 5-HT2A receptor, the IC50 came to 1.2 µM.
As for `NC[C@@H](O)[C@H](c1ccccc1)N1C(=O)C2(CCCCC2)c2cc(F)ccc21` [Example 99, 1′-[(1S,2R)-3-amino-2-hydroxy-1-phenylpropyl]-5′-fluorospiro[cyclohexane-1,3′-indol]-2′(1′H)-one hydrochloride], the results for the inhibition at 1 µM at human hNET and on human 5-HT2A receptor were 11% and 7%, respectively.
On to `CNC[C@@H](O)[C@H](c1cccc(F)c1)n1ccc2cc(OCc3ccccc3)ccc21` [Example 24, (1S,2R)-1-[5-(benzyloxy)-1H-indol-1-yl]-1-(3-fluorophenyl)-3-(methylamino)propan-2-ol hydrochloride], for which the half-maximal effective concentration (EC50) on human hNET turned out to be 0.036 µM. Further, the inhibition at 1 µM at human 5-HT2A receptor turned out to be 20%.
At human hNET, `CNC[C@@H](O)[C@H](c1ccccc1)n1ccc2cc(OC(C)c3ccccc3)ccc21` (mixture of isomers) [Example 17, (1S,2R)-3-(methylamino)-1-phenyl-1-[5-(1RS)-(1-phenylethoxy)-1H-indol-1-yl]propan-2-ol hydrochloride] yielded a half-maximal effective concentration (EC50) of 0.873 µM. Further, the concentration for half-maximal inhibition (IC50) on human 5-HT2A receptor is 2.64 µM.
For `CNC[C@@H](O)[C@H](c1ccccc1)n1ccc2cc(OCc3ccccc3Cl)ccc21` [Example 8, (1S,2R)-1-{5-[(2-chlorobenzyl)oxy]-1H-indol-1-yl}-3-(methylamino)-1-phenylpropan-2-ol hydrochloride], in that order: 0.147 µM and 0.658 µM.
Consider `CNC[C@@H](O)[C@H](c1ccccc1)n1ccc2cccc(OCc3ccccc3)c21` [Example 4, (1S,2R)-1-[7-(benzyloxy)-1H-indol-1-yl]-3-(methylamino)-1-phenylpropan-2-ol hydrochloride], for which, at human hNET, the inhibition at 1 µM stood at 20%. At human 5-HT2A receptor, the IC50 turned out to be 1.47 µM.
Molecule `CNC[C@@H](O)[C@H](c1ccccc1)n1ccc2cc(OCc3ccccc3OC)ccc21` [Example 5, (1S,2R)-1-{5-[(2-methoxybenzyl)oxy]-1H-indol-1-yl}-3-(methylamino)-1-phenylpropan-2-ol hydrochloride] displayed a concentration for a half-maximal effect (EC50) on human hNET of 0.196 µM. Besides, the half-maximal inhibitory concentration (IC50) at human 5-HT2A receptor is 0.678 µM.
Regarding `O[C@H](CN1CCCC1)[C@H](c1ccccc1)n1ccc2cc(OCc3ccccc3)ccc21` [Example 89, (1S,2R)-1-[5-(benzyloxy)-1H-indol-1-yl]-1-phenyl-3-pyrrolidin-1-ylpropan-2-ol hydrochloride], the inhibition at 1 µM on human hNET turned out to be 14%; on human 5-HT2A receptor it was 32%.
Molecule `CNC[C@@H](O)[C@H](c1ccccc1)n1ccc2cc(OCc3ccc(Cl)cc3)ccc21` [Example 10, (1S,2R)-1-{5-[(4-chlorobenzyl)oxy]-1H-indol-1-yl}-3-(methylamino)-1-phenylpropan-2-ol hydrochloride] yielded an EC50 at human hNET of 0.067 µM. Moreover, the 50% inhibitory concentration (IC50) on human 5-HT2A receptor came out at 0.712 µM.
For `CCNC[C@@H](O)[C@H](c1ccccc1)N1C(=O)C2(CCCCC2)c2ccc(F)cc21` [Example 96, 1′-[(1S,2R)-3-(ethylamino)-2-hydroxy-1-phenylpropyl]-6′-fluorospiro[cyclohexane-1,3′-indol]-2′(1′H)-one hydrochloride], the inhibition at 1 µM at human hNET was determined as 48%. The IC50 at human 5-HT2A receptor was determined as 0.462 µM.
`CNC[C@@H](O)[C@H](c1ccccc1)N1C(=O)C2(CCCCC2)c2cc(OC)ccc21` [Example 105, 1′-[(1S,2R)-2-hydroxy-3-(methylamino)-1-phenylpropyl]-5′-methoxyspiro[cyclohexane-1,3′-indol]-2′(1′H)-one hydrochloride] registered an EC50 on human hNET of 0.081 µM. At human 5-HT2A receptor, the inhibition at 1 µM was found to be 37%.
Regarding `CCN(C)C[C@@H](O)[C@H](c1ccccc1)n1ccc2cc(OCc3ccccc3)ccc21` [Example 87, (1S,2R)-1-[5-(benzyloxy)-1H-indol-1-yl]-3-[ethyl(methyl)amino]-1-phenylpropan-2-ol hydrochloride], the inhibition at 1 µM on human hNET came out at 16%. Moreover, at human 5-HT2A receptor, the half-maximal inhibitory concentration (IC50) amounted to 1.12 µM.
With `CCNC[C@@H](O)[C@H](c1ccccc1)n1ccc2cc(OCc3ccccc3)ccc21` [Example 83, (1S,2R)-1-[5-(benzyloxy)-1H-indol-1-yl]-3-(ethylamino)-1-phenylpropan-2-ol hydrochloride], at human hNET, the inhibition at 1 µM turned out to be 43%. The IC50 at human 5-HT2A receptor was found to be 0.38 µM.
On human hNET, `CNC[C@@H](O)[C@H](c1ccccc1)n1ccc2cc(OCc3ccc(F)cc3)ccc21` [Example 13, (1S,2R)-1-{5-[(4-fluorobenzyl)oxy]-1H-indol-1-yl}-3-(methylamino)-1-phenylpropan-2-ol hydrochloride] had an EC50 of 0.031 µM. Moreover, the IC50 at human 5-HT2A receptor amounted to 0.468 µM.
`CNC[C@@H](O)[C@H](c1ccccc1)N1CCc2cc(NC(=O)c3ccccc3)ccc21` [Example 74, N-{1-[(1S,2R)-2-Hydroxy-3-(methylamino)-1-phenylpropyl]-2,3-dihydro-1H-indol-5-yl}benzamide hydrochloride] returned an EC50 at human hNET of 0.365 µM. Further, the inhibition at 1 µM on human 5-HT2A receptor worked out at 24%.
Regarding `CNC[C@@H](O)[C@H](c1ccccc1)N1C(=O)C2(CCCCC2)c2cccc(Cl)c21` [Example 31, 7′-Chloro-1′-[(1S,2R)-2-hydroxy-3-(methylamino)-1-phenylpropyl]spiro[cyclohexane-1,3′-indol]-2′(1′H)-one hydrochloride], it took 0.032 µM to reach a half-maximal effect on human hNET (EC50). Also, the concentration for half-maximal inhibition (IC50) at human 5-HT2A receptor came to 0.203 µM.
On to `CN(C)C[C@@H](O)[C@H](c1ccccc1)n1ccc2cc(OCc3ccccc3)ccc21` [Example 86, (1S,2R)-1-[5-(benzyloxy)-1H-indol-1-yl]-3-(dimethylamino)-1-phenylpropan-2-ol hydrochloride], for which, at human hNET, the inhibition at 1 µM was determined as 22%. Moreover, the half-maximal inhibitory concentration (IC50) at human 5-HT2A receptor amounted to 0.263 µM.
For `CNC[C@@H](O)[C@H](c1cccc(F)c1)N1C(=O)C2(CCCCC2)c2ccc(F)cc21` [Example 32, 6′-fluoro-1′-[(1S,2R)-1-(3-fluorophenyl)-2-hydroxy-3-(methylamino)propyl]spiro[cyclohexane-1,3′-indol]-2′(1′H)-one hydrochloride], the EC50 on human hNET turned out to be 0.043 µM. Moreover, the inhibition at 1 µM at human 5-HT2A receptor is 95%.
Molecule `CNC[C@@H](O)[C@H](c1ccccc1)N1C(=O)C2(CCCCC2)c2cc(Cl)ccc21` [Example 27, 5′-chloro-1′-[(1S,2R)-2-hydroxy-3-(methylamino)-1-phenylpropyl]spiro[cyclohexane-1,3′-indol]-2′(1′H)-one hydrochloride] returned an EC50 on human hNET of 0.089 µM. Besides, on human 5-HT2A receptor, the IC50 is 0.423 µM.
For `CNC[C@@H](O)[C@H](c1ccccc1)N1CCc2cc(NC(=O)C3CCCCC3)ccc21` [Example 76, N-{1-[(1S,2R)-2-Hydroxy-3-(methylamino)-1-phenylpropyl]-2,3-dihydro-1H-indol-5-yl}cyclohexanecarboxamide hydrochloride], the inhibition at 1 µM at human hNET was 54%; on human 5-HT2A receptor, 45%.
